Source: ChEMBL document CHEMBL4396958, “Anti-inflammatory phenylpropanoid glycosides from the fruits of Forsythia suspensa” (Bioorg Med Chem Lett, 2019)

How the values were obtained:
[1] = system: Macrophage; test: Inhibition of TNFalpha expression in LPS-induced macrophages (unknown origin) at 10 uM incubated for 24 hrs by ELISA relative to control; assay type: functional
[2] = system: Macrophage; test: Inhibition of TNFalpha expression in LPS-induced macrophages (unknown origin) incubated for 24 hrs by ELISA; assay type: functional, cell-based

Structure (SMILES): O=C(/C=C/c1ccc(O)cc1)OC[C@H]1O[C@@H](Oc2ccc(/C=C/C(=O)OC[C@H]3OC(O)[C@H](O)[C@@H](O)[C@@H]3O)cc2O)[C@H](O)[C@@H](O)[C@@H]1O (some centres undefined)
- inhibition at 10 µM [1]: 98.3%
- IC50 [2]: 1050 nM

Structure (SMILES): C[C@@H]1C[C@H]2[C@@H]3CCC4=CC(=O)C=C[C@]4(C)[C@@]3(F)[C@@H](O)C[C@]2(C)[C@@]1(O)C(=O)CO [DEXAMETHASONE]
- inhibition at 10 µM [1]: 82.5%
- IC50 [2]: 134 nM
